# Test results: patent US5041567A, “Antibacterial monic acid derivatives” (Beecham Group plc, priority 1982, dated 1991)
# Read-outs that look alike come from different tables or passages of the source.
# Assays:
# [1] = tested on: Staph. aureus B4 (pen. resistant); test: MIC against veterinary bacteria in vitro; conditions: Staphylococcus aureus, 18 h
# Method: (§1) The activity of the compounds of the Examples against various veterinarily important bacteria, was assayed in vitro using two-fold serial dilutions in Diagnostic Sensitivity Test Agar inoculated with 10^4 organisms.
# M. suipneumoniae JF 435 = test: MIC against mycoplasma in vitro; assay type: cell-based; conditions: Mesomycoplasma hyopneumoniae, JF435, 144 h
# Staph. aureus Oxford [2] = test: MIC against human bacteria in vitro; assay type: cell-based; conditions: Staphylococcus aureus
# M. suipneumoniae HK(2) = test: MIC against mycoplasma in vitro; assay type: cell-based; conditions: Mesomycoplasma hyopneumoniae, 144 h
# [3] = tested on: Strep. suis (group D) SPS11; test: MIC against veterinary bacteria in vitro; conditions: Streptococcus suis, 18 h
# Method: as §1
# Bacillus subtilis 6633 = test: MIC against human bacteria in vitro; assay type: cell-based
# [4] = tested on: M. suipneumoniae J2206/183^b; test: MIC against mycoplasma in vitro; assay type: cell-based; conditions: Mesomycoplasma hyopneumoniae, 144 h
# Past. multocida PA1 = test: MIC against veterinary bacteria in vitro; conditions: Pasteurella multocida, PA1, 18 h
# Method: as §1
# Past. multocida PA2 = test: MIC against veterinary bacteria in vitro; conditions: Pasteurella multocida, PA2, 18 h
# Method: as §1
# S. dublin S7 = test: MIC against veterinary bacteria in vitro; conditions: Salmonella enterica, S7, 18 h
# Method: as §1
# Strep. pneumoniae CN33 = test: MIC against human bacteria in vitro; assay type: cell-based; conditions: Streptococcus pneumoniae; Strep. pneumoniae CN33; 5% chocolated horse blood agar, 18 hours; read-out: MIC
# [5] = tested on: Corynebacterium xerosis 9755; test: MIC against human bacteria in vitro; assay type: cell-based
# [6] = tested on: Haemophilus influenzae Wy21; test: MIC against human bacteria in vitro; assay type: cell-based
# [7] = tested on: Erysipelothrix rhusiopathiae NCTC 8163; test: MIC against veterinary bacteria in vitro; conditions: Erysipelothrix rhusiopathiae, NCTC8163, 18 h
# Method: as §1
# M. pneumoniae ATCC 15492 = test: MIC against mycoplasma in vitro; assay type: cell-based; conditions: Mycoplasmoides pneumoniae, ATCC15492, 144 h
# Bord. bronchiseptica B08 = test: MIC against veterinary bacteria in vitro; conditions: Bordetella bronchiseptica, B08, 18 h
# Method: as §1
# Past. haemolytica PA5 = test: MIC against veterinary bacteria in vitro; conditions: Mannheimia haemolytica, PA5, 18 h
# Method: as §1
# Strep. agalactiae SPA1 = test: MIC against veterinary bacteria in vitro; conditions: Streptococcus agalactiae, SPA1, 18 h
# Method: as §1
# [8] = tested on: Pasteurella multocida 1633; test: MIC against human bacteria in vitro; assay type: cell-based
# E. coli ESS = test: MIC against human bacteria in vitro; assay type: cell-based; conditions: Escherichia coli
# M. suipneumoniae LABER = test: MIC against mycoplasma in vitro; assay type: cell-based; conditions: Mesomycoplasma hyopneumoniae, 144 h
# Staph. aureus Russell = test: MIC against human bacteria in vitro; assay type: cell-based; conditions: Staphylococcus aureus
# M. suipneumoniae UCD 1 = test: MIC against mycoplasma in vitro; assay type: cell-based; conditions: Mesomycoplasma hyopneumoniae, UCD1, 144 h
# [9] = tested on: M. suipneumoniae ATCC 25095; test: MIC against mycoplasma in vitro; assay type: cell-based; conditions: Mesomycoplasma hyopneumoniae, ATCC25095, 144 h
# [10] = tested on: M. suipneumoniae PW/C/210; test: MIC against mycoplasma in vitro; assay type: cell-based; conditions: Mesomycoplasma hyopneumoniae, 144 h
# M. hyorhinis ATCC 23234 = test: MIC against mycoplasma in vitro; assay type: cell-based; conditions: Mesomycoplasma hyorhinis, ATCC23234, 144 h
# Sarcina lutea 8340 = test: MIC against human bacteria in vitro; assay type: cell-based
# [11] = tested on: M. suipneumoniae NCTC 10110; test: MIC against mycoplasma in vitro; assay type: cell-based; conditions: Mesomycoplasma hyopneumoniae, NCTC10110, 144 h
# M. hyorhinis ATCC 25021 = test: MIC against mycoplasma in vitro; assay type: cell-based; conditions: Mesomycoplasma hyorhinis, ATCC25021, 144 h
# Staph. aureus Oxford [12] = test: MIC against veterinary bacteria in vitro; conditions: Staphylococcus aureus, 18 h
# Method: as §1
# M. dispar NCTC 10125 = test: MIC against mycoplasma in vitro; assay type: cell-based; conditions: 144 h
# [13] = tested on: M. hyosynoviae ATCC 25591; test: MIC against mycoplasma in vitro; assay type: cell-based; conditions: 144 h
# [14] = tested on: Corynebacterium pyogenes CY1; test: MIC against veterinary bacteria in vitro; conditions: CY1, 18 h
# Method: as §1
# Staph. aureus W2827 = test: MIC against human bacteria in vitro; assay type: cell-based; conditions: Staphylococcus aureus
# Strep. agalactiae 2788-B = test: MIC against human bacteria in vitro; assay type: cell-based; conditions: Streptococcus agalactiae; Strep. agalactiae 2788-B; 5% chocolated horse blood agar, 18 hours; read-out: MIC
SMILES,MIC [1] [µg/mL],MIC (M. suipneumoniae JF 435) [µg/mL],MIC (M. suipneumoniae HK(2)) [µg/mL],MIC [3] [µg/mL],MIC [4] [µg/mL],MIC (Past. multocida PA1) [µg/mL],MIC (Past. multocida PA2) [µg/mL],MIC (S. dublin S7) [µg/mL],MIC (Strep. pneumoniae CN33) [µg/mL],MIC [7] [µg/mL],MIC (M. pneumoniae ATCC 15492) [µg/mL],MIC (Bord. bronchiseptica B08) [µg/mL],MIC (Past. haemolytica PA5) [µg/mL],MIC (Strep. agalactiae SPA1) [µg/mL],MIC (M. suipneumoniae LABER) [µg/mL],MIC (M. suipneumoniae UCD 1) [µg/mL],MIC [9] [µg/mL],MIC [10] [µg/mL],MIC [11] [µg/mL],MIC (Staph. aureus Oxford [12]) [µg/mL],further results
"CSc1ccc(-c2cnc(/C=C(\C)C[C@@H]3OC[C@H](C[C@@H]4O[C@H]4[C@@H](C)[C@H](C)O)[C@@H](O)[C@H]3O)o2)cc1 [Example 9, 5-p-methylthiophenyl-2-(1-normon-2-yl)oxazole A]",1.25,0.5,0.5,10,0.5,20,5,> 80,10,80,1,40,40,10,0.5,0.5,0.5,0.5,0.5,0.625,"MIC (Staph. aureus Oxford [2]; 18 h): 2.5 µg/mL; MIC (Bacillus subtilis 6633; Bacillus subtilis, 6633, 18 h): 1 µg/mL; MIC ([5]; Corynebacterium xerosis, 9755, 18 h): > 100 µg/mL; MIC ([6]; Haemophilus influenzae, WY21, 18 h): 50 µg/mL; MIC ([8]; Pasteurella multocida, 1633, 18 h): 5 µg/mL; MIC (E. coli ESS; 18 h): 5 µg/mL; MIC (Staph. aureus Russell; 18 h): 5 µg/mL; MIC (M. hyorhinis ATCC 23234; M. hyorhinis ATCC 23234, 6 days, 37° C., read-out: MIC): 0.5 µg/mL; MIC (Sarcina lutea 8340; Micrococcus luteus, 8340, 18 h): > 100 µg/mL; MIC (M. hyorhinis ATCC 25021; M. hyorhinis ATCC 25021, 6 days, 37° C., read-out: MIC): 0.5 µg/mL; MIC (M. dispar NCTC 10125): 0.1 µg/mL; MIC [13]: 0.5 µg/mL; MIC [14]: 80 µg/mL; MIC (Staph. aureus W2827; W2827, 18 h): 5 µg/mL; MIC (Strep. agalactiae 2788-B): 10 µg/mL"
C/C(=C\c1ncc(-c2ccc(S(C)(=O)=O)cc2)o1)C[C@@H]1OC[C@H](C[C@@H]2O[C@H]2[C@@H](C)[C@H](C)O)[C@@H](O)[C@H]1O [Example 10],5,0.05,0.05,10,0.05,5,1.25,> 80,8,> 80,0.1,> 80,40,2.5,0.025,0.05,0.025,0.025,0.05,2.5,"MIC (Staph. aureus Oxford [2]; Staph. aureus Oxford, 5% chocolated horse blood agar, 18 hours, read-out: MIC): 8 µg/mL; MIC (Bacillus subtilis 6633; Bacillus subtilis 6633, 5% chocolated horse blood agar, 18 hours, read-out: MIC): 2 µg/mL; MIC ([5]; Corynebacterium xerosis 9755, 5% chocolated horse blood agar, 18 hours, read-out: MIC): > 128 µg/mL; MIC ([6]; Haemophilus influenzae Wy21, 5% chocolated horse blood agar, 18 hours, read-out: MIC): 2 µg/mL; MIC ([8]; Pasteurella multocida 1633, 5% chocolated horse blood agar, 18 hours, read-out: MIC): 8 µg/mL; MIC (E. coli ESS; E. coli ESS, 5% chocolated horse blood agar, 18 hours, read-out: MIC): 8 µg/mL; MIC (Staph. aureus Russell; Staph. aureus Russell, 5% chocolated horse blood agar, 18 hours, read-out: MIC): 8 µg/mL; MIC (M. hyorhinis ATCC 23234): 0.025 µg/mL; MIC (Sarcina lutea 8340; Micrococcus luteus, Sarcina lutea 8340, 5% chocolated horse blood agar, 18 hours, read-out: MIC): > 128 µg/mL; MIC (M. hyorhinis ATCC 25021): 0.025 µg/mL; MIC (M. dispar NCTC 10125): 0.025 µg/mL; MIC [13]: 0.05 µg/mL; MIC [14]: > 80 µg/mL; MIC (Staph. aureus W2827; Staph. aureus W2827, 5% chocolated horse blood agar, 18 hours, read-out: MIC): 8 µg/mL; MIC (Strep. agalactiae 2788-B): 8 µg/mL"
